Consider 30 compounds from EP1077967B1, “BIPHENYL OXO-ACETIC ACIDS USEFUL IN THE TREATMENT OF INSULIN RESISTANCE AND HYPERGLYCEMIA” (Wyeth, priority 1998, dated 1999).

Where a name gives a salt, the structure may show the parent alone. Read-outs that look alike come from different tables or passages of the source.

Experiment [1] deals with rat hepatic microsomal PTPases. As to the kind of experiment: Inhibition of tri-phosphorylated insulin receptor dodecaphosphopeptide dephosphorylation by rat hepatic PTPases (malachite green). The experiment is classed as biochemical. To be noted: rat liver microsomal fraction; for % Change from Control: PTPase activity, compound at 50 µM; for IC50: % Change from Control. For orientation: Microsomes from liver hold many membrane-bound enzymes, among them those of drug oxidation.

Experiment [2] concerns the target T1, Human recombinant PTP1B (Homo sapiens, UniProt P18031).
T1 construct: made in house
T1 sequence (P18031 1-435): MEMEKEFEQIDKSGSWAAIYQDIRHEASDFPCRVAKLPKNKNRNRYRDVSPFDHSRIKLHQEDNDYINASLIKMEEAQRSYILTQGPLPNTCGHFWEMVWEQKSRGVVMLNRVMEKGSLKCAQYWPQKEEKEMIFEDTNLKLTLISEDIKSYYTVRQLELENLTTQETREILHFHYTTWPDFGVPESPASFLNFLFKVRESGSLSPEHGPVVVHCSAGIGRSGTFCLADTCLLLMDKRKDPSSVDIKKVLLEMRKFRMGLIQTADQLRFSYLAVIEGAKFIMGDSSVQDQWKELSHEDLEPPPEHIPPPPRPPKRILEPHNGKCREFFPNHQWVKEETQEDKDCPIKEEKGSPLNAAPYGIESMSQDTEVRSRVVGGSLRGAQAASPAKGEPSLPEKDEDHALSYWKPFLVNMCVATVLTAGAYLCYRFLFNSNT
As to the kind of experiment: Inhibition of tri-phosphorylated insulin receptor dodecaphosphopeptide dephosphorylation by hPTP1B (malachite green). Format: biochemical. To be noted: for inhibition at 2.5 µM: read-out: change of PTP1B activity (percent of phosphatase control).

[3] abbreviates: recombinant PTP1B, dodecaphosphopeptide substrate.

On to `O=C(O)COc1ccc(-c2ccc(-c3coc4ccccc34)cc2)cc1` [Example 4, (4'-Benzofuran-3-yl-biphenyl-4-yloxy)-acetic acid], for which the “% Change from Control” value in experiment [1] is -11%. Further, the “change of PTP1B activity (percent of phosphatase control)” value in experiment [2] (compound at 2.5 uM) was -51 (2.5 uM). In the same order, the values of `O=C(O)C(Cc1ccccc1)Oc1ccc(-c2ccc(-c3coc4ccccc34)cc2)cc1` (centres unmarked) [Example 5, 2-(4'-Benzofuran-3-yl-biphenyl-4-yloxy)-3-phenyl-propionic acid] are -70% and -47 (2.5 uM).

Take `O=C(O)COc1ccc(-c2ccc(-c3c(Br)oc4ccccc34)cc2)cc1` [Example 6, [4'-(2-Bromo-benzofuran-3-yl)-biphenyl-4-yloxy]-acetic acid]: in experiment [1], the “% Change from Control” value is recorded as -71%. Further, the inhibition at 2.5 µM in experiment [2] (compound at 2.5 uM) came to 15%. Regarding `O=C(O)C(Cc1ccccc1)Oc1ccc(-c2ccc(-c3c(Br)oc4ccccc34)cc2)cc1` (centres unmarked) [Example 7, 2-[4'-(2-Bromo-benzofuran-3-yl)-biphenyl-4-yloxy]-3-phenyl-propionic acid], the “% Change from Control” value in experiment [1] is -73%. Moreover, the inhibition at 2.5 µM in experiment [2] (compound at 2.5 uM) amounted to 58%.

Take `CCCCc1oc2ccccc2c1-c1ccc(-c2ccc(O)cc2)cc1` [Example 8, 4'-(2-Butyl-benzofuran-3-yl)-biphenyl-4-ol]: in experiment [1], the “% Change from Control” value is reported as -28%. Moreover, the IC50 in experiment [2] (setting [3]) stood at 740 nM. `CCCCc1oc2ccccc2c1-c1ccc(-c2ccc(OCC(=O)O)cc2)cc1` [Example 9, [4'-(2-Butyl-benzofuran-3-yl)-biphenyl-4-yloxy]-acetic acid]: the “% Change from Control” value in experiment [1] is on record as -75%. For the same compound, in experiment [2] (setting [3]), the concentration for half-maximal inhibition (IC50) worked out at 2190 nM.

`O=C(O)[C@H](Cc1ccccc1)Oc1ccc(-c2ccc(-c3c(Cc4ccccc4)oc4ccccc34)cc2)cc1` [Example 16, (2S)-2-[4'-(2-Benzyl-benzofuran-3-yl)-biphenyl-4-yloxy]-3-phenyl-propionic acid tromethamine salt]: the “% Change from Control” value in experiment [1] is recorded as -53%. Besides, in experiment [2] (setting [3]), the IC50 was determined as 397 nM.

In the case of `O=C(O)[C@H](Oc1ccc(-c2ccc(-c3c(Cc4ccccc4)oc4ccccc34)cc2)cc1)c1ccccc1` [Example 18, (2R)-2-[4'-(2-Benzyl-benzofuran-3-yl)-biphenyl-4-yloxy]-phenyl-acetic acid], the IC50 in experiment [1] turned out to be 24200 nM; in experiment [2] (setting [3]) it was 401 nM. As to `COc1ccc(Cc2sc3ccccc3c2-c2ccc(-c3ccc(O[C@H](Cc4ccccc4)C(=O)O)cc3)cc2)cc1` [Example 20], the midpoint of inhibition in experiment [1], the IC50, lay at 41600 nM. For the compound `CCCCc1sc2ccccc2c1-c1ccc(-c2ccc(OC(C(=O)O)c3ccccc3)cc2)cc1` (centres unmarked) [Example 21, [4'-(2-Butyl-benzo[b]thiophene-3-yl)-biphenyl-4-yloxy]-phenyl-acetic acid], the 50% inhibitory concentration (IC50) was 35500 nM in experiment [1] and 118 nM in experiment [2] (setting [3]).

In the case of `O=C(O)[C@@H](Cc1ccccc1)Oc1ccc(-c2ccc(-c3c(C(O)c4ccccc4)oc4ccccc34)cc2)cc1` (stereo partly drawn) [Example 22, (2R)-2-{4'-[2-(Hydroxy-phenyl-methyl)-benzofuran-3-yl)-biphenyl-4-yloxy]-3-phenyl-propionic acid], the “% Change from Control” value in experiment [1] is recorded as -55%. The IC50 in experiment [2] (setting [3]) came out at 118 nM. With `COc1ccc(Cc2sc3ccccc3c2-c2ccc(-c3ccc(O[C@H](Cc4ccccc4)C(=O)O)cc3)cc2)cc1OC` [Example 25, (2R)-2-{4'-[2-(3,4-Dimethoxy-benzyl)-benzo[b]thiophen-3-yl]-biphenyl-4-yloxy}-3-phenyl-propionic acid], the IC50 in experiment [1] was determined as 17900 nM; in experiment [2] (setting [3]) it was 213 nM. The like results for `COc1ccc(Cc2sc3ccccc3c2-c2ccc(-c3ccc(O[C@H](Cc4ccccc4)C(=O)O)cc3)cc2)c(OC)c1` [Example 26, (2R)-2-{4'-[2-(2,4-Dimethoxy-benzyl)-benzo[b]thiophen-3-yl]-biphenyl-4-yloxy}-3-phenyl-propionic acid] were, in that order, 20000 nM and 85 nM. Turning to `CC1(C)Oc2ccc(Cc3sc4ccccc4c3-c3ccc(-c4ccc(O[C@H](Cc5ccccc5)C(=O)O)cc4)cc3)cc2O1` [Example 27, (2R) 2-{4'-[2-(2,2-Dimethyl-benzo[1,3]dioxol-5-ylmethyl)-benzo[b]thiophene-3-yl)-biphenyl-4-yloxy]-3-phenyl-propionic acid], the figures for the IC50 in experiment [1] and in experiment [2] (setting [3]) were 24900 nM and 77 nM, respectively. `O=C(O)[C@@H](Cc1ccccc1)Oc1ccc(-c2ccc(-c3ccsc3Cc3ccccc3)cc2)cc1` [Example 29, (2R)-2-[4'-(2-Benzyl-thiophene-3-yl)-biphenyl-4-yloxy]-3-phenyl-propionic acid]: in experiment [1], the “% Change from Control” value is given as -19%. In addition, the IC50 in experiment [2] (setting [3]) stood at 970 nM. Regarding `O=C(O)[C@@H](Cc1ccccc1)Oc1ccc(-c2ccc(-c3c(Cc4ccccc4)sc4ccccc34)cc2)cc1Br` [Example 36, (2R)-2-[4'-(2-Benzyl-benzo[b]thiophene-3-yl)-3-bromo-biphenyl-4-yloxy]-3-phenyl-propionic acid], the half-maximal inhibitory concentration (IC50) in experiment [1] came out at 17900 nM; in experiment [2] (setting [3]), 58 nM. In the same order, the values of `O=C(O)[C@@H](Cc1ccccc1)Oc1c(Br)cc(-c2ccc(-c3c(Cc4ccccc4)sc4ccccc34)cc2)cc1Br` [Example 37, (2R)-2-[4'-(2-Benzyl-benzo[b]thiophene-3-yl)-3,5-dibromo-biphenyl-4-yloxy]-3-phenyl-propionic acid] are 36800 nM and 25 nM. The like results for `COc1ccc(-c2cc(-c3ccc(-c4c(Cc5ccccc5)sc5ccccc45)cc3)ccc2O[C@H](Cc2ccccc2)C(=O)O)cc1` [Example 38, (2R)-2-[4-(2-Benzyl-benzo[b]thiophene-3-yl)-4"-methoxy-[1,1';3',1"]terphenyl-4'-yloxy]-3-phenvl-propionic acid] were, in that order, 19300 nM and 53 nM. On to `COc1cc(-c2cc(-c3ccc(-c4c(Cc5ccccc5)sc5ccccc45)cc3)ccc2OCC(=O)O)cc(OC)c1OC` [Example 61], for which the concentration for half-maximal inhibition (IC50) in experiment [2] (setting [3]) was 100 nM. On the same count and under the same terms, then `O=C(O)COc1ccc(-c2ccc(-c3c(Cc4ccccc4)sc4ccccc34)cc2)cc1-c1ccccc1` [Example 62], with 105 nM.

With `O=C(O)c1ccc(COc2ccc(-c3ccc(-c4c(Cc5ccccc5)oc5ccccc45)cc3)cc2)cc1` [Example 63, 4-[4'-(2-benzyl-benzofuran-3-yl)-biphenyl-4-yloxymethyl]-benzoic acid], in experiment [2] (setting [3]), the IC50 was found to be 369 nM.

Consider `Cc1sc(Cc2ccccc2)c(-c2ccc(-c3ccc(O[C@H](Cc4ccccc4)C(=O)O)cc3)cc2)c1C` [Example 64, (2R)-2-[4'-(2-Benzyl-4,5-dimethyl-thiophen-3-yl)-biphenyl-4-yloxy]-3-phenyl-propionic acid], for which the half-inhibitory concentration (IC50) in experiment [2] (setting [3]) stood at 512 nM. Still for that read-out and setting: under `Cc1cc(-c2ccc(-c3c(Cc4ccccc4)oc4ccccc34)cc2)cc(C)c1O[C@H](Cc1ccccc1)C(=O)O` [Example 65, (2R)-2-[4'-(2-Benzyl-benzofuarn-3-yl)-3,5-dimethyl-biphenyl-4-yloxy]-3-phenyl-propionic acid] stands 74 nM.

Regarding `O=C(c1ccccc1)c1oc2ccccc2c1-c1ccc(-c2ccc(O[C@H](Cc3ccccc3)C(=O)O)c([N+](=O)[O-])c2)cc1` [Example 66, (2R)-2-[4'-(2-Benzoyl-benzofuarn-3-yl)-3-nitro-biphenyl-4-yloxy]-3-phenyl-propionic acid], the IC50 in experiment [2] came out at 788 nM.

With `O=C(O)C(Cc1ccccc1)Oc1ccc(-c2ccc(-c3c(C(O)c4ccccc4)oc4ccccc34)cc2)cc1[N+](=O)[O-]` [Example 67, (2R)-2-{4'-[2-(Hydroxy-phenyl-methyl)-benzofuarn-3-yl)-3-nitro-biphenyl-4-yloxy]-3-phenyl-propionic acid], the IC50 in experiment [2] (setting [3]) stood at 103 nM. On to `O=C(O)[C@@H](Cc1ccccc1)Oc1ccc(-c2ccc(-c3c(Cc4ccccc4)oc4ccccc34)cc2)cc1[N+](=O)[O-]` [Example 68, (2R)-2-[4'-(2-Benzyl-benzofuarn-3-yl)-3-nitro-biphenyl-4-yloxy]-3-phenyl-propionic acid], for which the IC50 in experiment [2] came out at 231 nM. As for `O=C(O)[C@@H](Cc1ccccc1)Oc1ccc(-c2ccc(-c3nc4cccnc4n3Cc3ccccc3)cc2)cc1` [Example 69, (2R)-2-[4'-(3-Benzyl-3H-imidazol[4,5-b]pyridin-2-yl)-biphenyl-4-yloxy]-3-phenyl-propionic acid sodium salt], the “change of PTP1B activity (percent of phosphatase control)” value in experiment [2] (compound at 1 uM) is reported as -20 (1 uM). Turning to `O=C(O)[C@H](Cc1ccccc1)Oc1ccc(-c2ccc(-c3nc4ccccc4n3Cc3ccccc3)cc2)cc1` [Example 70, (2S)-2-[4'-(1-Benzyl-1H-benzimidazol-2-yl)-biphenyl-4-yloxy]-3-phenyl-propionic acid], in experiment [2] (compound at 2.5 uM), the inhibition at 2.5 µM is 41%. Same read-out and setting: then `CC(=O)c1ccc(-c2ccc(-c3ccc(O[C@@H](Cc4ccccc4)C(=O)O)cc3)cc2)s1` [Example 71, (2S)-2-[4'-(5-acetyl-thiophen-2-yl)-biphenyl-4-yloxy]-3-phenyl-propionic acid sodium salt], with 43%.

On to “Ammonium molybdate tetrahydrate [reference compound]”, for which the IC50 in experiment [2] (setting [3]) was 8700 nM.

In general, IC50 refers to the concentration at which inhibition is half-maximal.
